Test results published in patent US20250354151A1, “INHIBITORY AGENT FOR MYOCARDIAL CELL DEATH, AND PROPHYLACTIC OR THERAPEUTIC AGENT FOR MYOCARDIAL DISORDERS OR HEART FAILURE” (KYOTO PREFECTURAL PUBLIC UNIVERSITY CORPORATION, priority 2022, published 2025).

Columns and labels:
[1] = test system: iPS cell-derived cardiomyocytes; test: Viability of cardiomyocytes after treatment with the TAOK1 inhibitor and doxorubicin (PrestoBlue); assay type: cell-based, human; conditions: C43 final concentration 10 nM, added simultaneously with doxorubicin; measured 3 days later; FIG. 4
Method: The iPS cell-derived cardiomyocytes were seeded on the 96-well plate coated with the growth factor reduced matrigel, after 5 days or more from the seeding, the TAOK1 inhibitor C43 (MedChemExpress) and the doxorubicin were simultaneously added, and 3 days later, the cell viability was measured with SpectraMaxM2e using the PrestoBlue reagent.

[2] = test system: iPS cell-derived cardiomyocytes; test: Oxygen consumption measurement (Seahorse XF Cell Mito Stress Test); assay type: cell-based, human; conditions: doxorubicin 1 μM for 3 hours vs 0 μM; FIG. 7
Method: TAOK1 knock-out cells were obtained from the iPS cell-derived cardiomyocytes in a similar manner as in Test Example 2-1. The obtained cells were treated with the doxorubicin at 0 μM or 1 μM for 3 hours, and oxygen consumption was measured using a Seahorse XFe 96 Flux Analyzer (Agilent) and a Seahorse XF Cell Mito Stress Test Kit (Agilent).

Row | Structure (SMILES) | cell viability (myocardial cell death caused by the doxorubicin) [1] | oxygen consumption of the cardiomyocytes [2]
1 | O=C(CNC(=O)c1ccc(-c2ccccc2)cc1)NC1CCCc2ccccc21 (centres unmarked) [Entry C43, N-[2-oxo-2-(1,2,3,4-tetrahydronaphthalen-1-ylamino)ethyl]biphenyl 4-carboxamide] | inhibit the myocardial cell death caused by the doxorubicin | –
2 | COc1cccc2c1C(=O)c1c(O)c3c(c(O)c1C2=O)C[C@@](O)(C(=O)CO)C[C@@H]3O[C@H]1C[C@H](N)[C@H](O)[C@H](C)O1 [doxorubicin] | – | significantly reduced
